Laboratory results published in ChEMBL document CHEMBL4028844, “Targeting the Receptor for Advanced Glycation Endproducts (RAGE): A Medicinal Chemistry Perspective” (J Med Chem, 2017).

Assays:
[1] = target: T1, Advanced glycosylation end product-specific receptor (Homo sapiens, UniProt Q15109); test: Binding affinity to human RAGE cytoplasmic domain by tryptophan fluorescence assay
[2] = target: T1, Advanced glycosylation end product-specific receptor; test: Inhibition of […] binding to human RAGE domain V expressed in CHO cells; format: cell-based
[3] = target: T1, Advanced glycosylation end product-specific receptor; test: Displacement of [I125]amyloid beta (1 to 40) from human RAGE domain V expressed in CHO cells; format: cell-based
[4] = target: T1, Advanced glycosylation end product-specific receptor; test: Inhibition of HMGB1 binding to human RAGE domain V expressed in CHO cells; format: cell-based
[5] = target: T1, Advanced glycosylation end product-specific receptor; test: Binding affinity to human C-terminal His-tagged RAGE domain V (24 to 125 residues) expressed in Escherichia coli BL21(DE3) by tryptophan fluorescence assay
[6] = target: T1, Advanced glycosylation end product-specific receptor; test: Binding affinity to human His-tagged RAGE domain VC1 expressed in Escherichia coli by fluorescence titration method
[7] = target: Advanced glycosylation end product-specific receptor (Rattus norvegicus, UniProt Q63495); test: Binding affinity to Wistar rat His-tagged RAGE domain VC1 expressed in Escherichia coli by fluorescence titration method
Sequence of Advanced glycosylation end product-specific receptor (Rattus norvegicus, UniProt Q63495) (Q63495 whole entry, the tested form may be a part): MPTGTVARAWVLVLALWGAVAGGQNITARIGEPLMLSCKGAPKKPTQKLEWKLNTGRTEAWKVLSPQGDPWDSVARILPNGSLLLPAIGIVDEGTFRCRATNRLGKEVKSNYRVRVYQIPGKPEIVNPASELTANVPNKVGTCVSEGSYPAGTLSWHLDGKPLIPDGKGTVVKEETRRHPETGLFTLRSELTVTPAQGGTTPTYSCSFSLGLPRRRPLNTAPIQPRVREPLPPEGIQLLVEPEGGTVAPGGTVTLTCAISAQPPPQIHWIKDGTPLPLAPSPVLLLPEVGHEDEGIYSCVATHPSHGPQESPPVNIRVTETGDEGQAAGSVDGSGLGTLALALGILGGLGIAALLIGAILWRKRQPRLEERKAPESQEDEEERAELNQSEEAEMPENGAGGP

[8] = Cytotoxicity against mouse HT22 cells assessed as cell survival at 10 uM after 18 hrs by MTT assay relative to control; format: cell-based, HT-22; settings: read-out: Survival
[9] = target: T1, Advanced glycosylation end product-specific receptor; test: Inhibition of amyloid beta binding to human RAGE […] expressed in HEK293 cells after 10 mins by MST assay; format: cell-based
[10] = target: T1, Advanced glycosylation end product-specific receptor; test: Inhibition of […] binding to RAGE (unknown origin) by ELISA
[11] = target: T1, Advanced glycosylation end product-specific receptor; test: Inhibition of amyloid beta binding to RAGE (unknown origin) by ELISA
[12] = target: T1, Advanced glycosylation end product-specific receptor; test: Inhibition of CML binding to RAGE (unknown origin) by ELISA
[13] = target: T1, Advanced glycosylation end product-specific receptor; test: Inhibition of amyloid beta binding to biotin-labeled human RAGE domain V at 20 uM after 60 mins by ELISA relative to cotrol

T1 sequence (Q15109 whole entry, the tested form may be a part): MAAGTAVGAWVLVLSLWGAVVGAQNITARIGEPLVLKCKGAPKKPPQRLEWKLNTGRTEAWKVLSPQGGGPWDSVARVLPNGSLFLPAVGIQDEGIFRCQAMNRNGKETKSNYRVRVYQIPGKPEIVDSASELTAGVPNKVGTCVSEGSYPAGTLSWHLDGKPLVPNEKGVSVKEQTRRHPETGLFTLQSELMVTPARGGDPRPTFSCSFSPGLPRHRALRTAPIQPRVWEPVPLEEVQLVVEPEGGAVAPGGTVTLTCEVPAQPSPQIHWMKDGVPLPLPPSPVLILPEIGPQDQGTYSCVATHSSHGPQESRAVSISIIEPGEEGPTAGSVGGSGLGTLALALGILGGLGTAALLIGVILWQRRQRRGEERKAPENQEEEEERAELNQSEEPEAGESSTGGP

COc1cc(SC)ccc1C(=O)Nc1cccc(C)n1
Kd [1]: 6 nM

Cc1nc2ccccc2n1CC(O)Cn1c2ccccc2c2ccccc21 (stereo unspecified)
Kd [1]: 1 nM

O=C(c1ccc(Cl)cc1)N(Cc1ccccc1)C1CCCCC1
Ki [2]: 230 nM | Ki [3]: 25 nM | Ki [4]: 148 nM

CC1NC(NCCC[C@H](N)C(=O)O)=NC1=O (stereo partly specified)
Kd [5]: 30 to 40 nM

O=C(O)c1cccnc1C(=O)O [QUINOLINIC ACID]
Kd [6]: 43 nM | Kd [7]: 43 nM

CCN(CC)CCOc1cccc(Nc2nc(-c3ccc(Cl)cc3)cc(-c3ccc(Cl)cc3)n2)c1
viability at 18 h, 10 µM [8]: 37.3%

O=C1CCC[C@@H]2[C@H]3CCCN4CCC[C@@H](CN12)[C@@H]34 [MATRINE]
Kd [9]: 24 mM

CCCCOc1cc(OCCCN(CC)CC)ccc1NC(=O)c1cc(-c2ccc(Oc3ccc(F)cc3)cc2)nn1C
viability at 18 h, 10 µM [8]: 10.3%

CCCCOc1cc(OCCCN(CC)CC)ccc1NC(=O)C(CC1CCN(Cc2ccccc2)CC1)NC(=O)OCC1c2ccccc2-c2ccccc21 (stereo unspecified)
IC50 [10]: < 500 nM | IC50 [11]: < 500 nM | IC50 [12]: < 500 nM

CCCCn1c([C@@H](Cc2ccc(OCCc3ccc(Cl)cc3)cc2)NC(=O)OC(C)(C)C)nc2cc(OCCCN(CC)CC)ccc21
IC50 [10]: < 500 nM | IC50 [11]: < 500 nM | IC50 [12]: < 4000 nM

COC(=O)c1cc(O)c(O)cc1NC(=O)C1Oc2ccccc2OC1C (stereo unspecified)
Kd [1]: 2 nM

Cc1c(Cl)cccc1NC(=O)CNC(=O)c1ccccc1F
Kd [1]: 32 nM

CCN(CC)CCOc1ccc(OC)cc1NC(=O)c1nc(-c2ccc(F)cc2)cc(-c2ccc(F)cc2)n1
inhibition [13]: > 4% | viability at 18 h, 10 µM [8]: 100%
